Results taken from patent US12715946B2, “Composition” (JOSHO GAKUEN EDUCATIONAL FOUNDATION, priority 2020, dated 2026).

Test system: Chinese hamster ovary cells (CHO cells)
Experiment: Evaluation of cellular uptake of FITC-labeled model drugs (flow cytometry, MFI)
Format: cell-based
Settings: 5 μg/mL, 2 hours incubation, n=3
Protocol: Cellular uptake evaluation of the model drugs described above was conducted using Examples 1 to 3 (polymeric compounds of Manufacturing Examples 1 to 3) or Comparative Examples 1 to 2 (compounds of Manufacturing Examples 4 and 5). A suspension of Ham's F-12 medium (manufactured by Fujifilm Wako Chemical Corporation) containing Chinese hamster ovary cells (CHO cells, 2×10^5 cells/mL) was prepared and seeded at 500μL/well to each well of a 24-well plate. The cells were incubated in a CO2 gas incubator (37° C., 5% CO2) for 24 hours.
Then, the compositions of the Examples and Comparative Examples (Table 1-6) were prepared by mixing 250 μL/well of Ham's F-12 medium containing the above model drugs and 250 μL/well of Ham's F-12 medium containing the manufacturing examples.
Then, the supernatant was removed from each well of the pre-cultured 24-well plate using an aspirator and the cells were washed twice with 500 μL/well of phosphate-buffered saline. Then, the aforementioned compositions were gently added to the wells and incubated in a carbon dioxide incubator for 2 hours. The number of experiments was n=3.
After 2 hours, the supernatants of medium were removed, and the cells were washed twice with 500 μL/well of phosphate-buffered saline. Then, 100 μL/well of trypsin-EDTA solution (0.25% trypsin, 1 mmol/L EDTA solution, Life Technologies) was added, and cultured CHO cells were detached from 24-well plates.
Then, 400 μL/well of trypan blue solution (Fujifilm Wako Chemical Corporation) was added to suspend the cells, and the cells were collected in microtubes. The collected cell suspensions were passed through a cell strainer, and the mean fluorescence intensity (MFI) was measured by flow cytometry. The cells without the polymeric compound (only the model drug was added) were used as controls.
While only the model drug introduced into the cells emits fluorescence. MFI represents the arithmetic average of the fluorescence intensity per cell, and a larger value of MFI indicates a more efficient intracellular uptake of the model drug.

O=C([O-])CCCCCCCNC(=O)c1ccccc1O.[Na+] [Comparative Example 2, Sodium salcaprozate]
MFI ± S.D. (Model drug: FITC-CTB (Molecular weight 11,000)): 3.7 ± 0.1 | MFI ± S.D. (Model drug: FITC-INS (Molecular weight 5,800)): 19.7 ± 0.2 | MFI ± S.D. (Model drug: FITC-IgG (Molecular weight 150,000)): 3.2 ± 0.1 | MFI ± S.D. (Model drug: FITC-IgM (Molecular weight 900,000)): 3.1 ± 0.2 | MFI ± S.D. (Model drug: FITC-OVA (Molecular weight 45,000)): 3.6 ± 0.4 | MFI ± S.D. (Model drug: FITC-Tf (Molecular weight 77,000)): 6.7 ± 0.2
